Measured values taken from publication PMC10004634 (PLOS ONE, 2023).

Columns and labels:
Experiment in all cases: biochemical
Set-up in all cases: KINOMEscan scanMAX competition binding, DNA-tagged kinases, qPCR read-out, percent control at 300 nM
PYK2 = target: T1, PYK2 (Homo sapiens, UniProt Q14289); settings: read-out: Percent control / Acalabrutinib
T1 construct: gene PTK2B

CSNK1A1 = CSNK1A1 (Homo sapiens, UniProt P48729); settings: read-out: Percent control / Acalabrutinib
EPHA1 = EPHA1 (Homo sapiens, UniProt P21709); settings: read-out: Percent control / Acalabrutinib
[1] = target: T2, ABL1(T315I)-nonphosphorylated (Homo sapiens, UniProt P00519, T315I); settings: read-out: Percent control / Acalabrutinib
T2 construct: nonphosphorylated

CAMK1 = CAMK1 (Homo sapiens, UniProt Q14012); settings: read-out: Percent control / Acalabrutinib
ALK = ALK (Homo sapiens, UniProt Q9UM73); settings: read-out: Percent control / Ibrutinib
EGFR(G719S) = EGFR(G719S) (Homo sapiens, UniProt P00533, G719S); settings: read-out: Percent control / Tirabrutinib
YES = target: T3, YES (Homo sapiens, UniProt P07947); settings: read-out: Percent control / Tirabrutinib
T3 construct: gene YES1

PRKR = target: T4, PRKR (Homo sapiens, UniProt P19525); settings: read-out: Percent control / Tirabrutinib
T4 construct: gene EIF2AK2

ACVR1 = ACVR1 (Homo sapiens, UniProt Q04771); settings: read-out: Percent control / Zanubrutinib
PIM3 = PIM3 (Homo sapiens, UniProt Q86V86); settings: read-out: Percent control / Zanubrutinib
SNARK = target: T5, SNARK (Homo sapiens, UniProt Q9H093); settings: read-out: Percent control / Zanubrutinib
T5 construct: gene NUAK2

PLK2 = PLK2 (Homo sapiens, UniProt Q9NYY3); settings: read-out: Percent control / Zanubrutinib
AKT1 = AKT1 (Homo sapiens, UniProt P31749); settings: read-out: Percent control / Zanubrutinib
NEK6 = NEK6 (Homo sapiens, UniProt Q9HC98); settings: read-out: Percent control / Zanubrutinib
CDK5 = CDK5 (Homo sapiens, UniProt Q00535); settings: read-out: Percent control / Zanubrutinib
PIK3CA(E545A) = PIK3CA(E545A) (Homo sapiens, UniProt P42336, E545A); settings: read-out: Percent control / Zanubrutinib
HIPK2 = HIPK2 (Homo sapiens, UniProt Q9H2X6); settings: read-out: Percent control / Zanubrutinib
PIK3CA(C420R) = PIK3CA(C420R) (Homo sapiens, UniProt P42336, C420R); settings: read-out: Percent control / Zanubrutinib
[2] = target: T6, ABL1(M351T)-phosphorylated (Homo sapiens, UniProt P00519, M351T); settings: read-out: Percent control / Zanubrutinib
T6 construct: phosphorylated

DCAMKL1 = target: T7, DCAMKL1 (Homo sapiens, UniProt O15075); settings: read-out: Percent control / Zanubrutinib
T7 construct: gene DCLK1

LRRK2(G2019S) = LRRK2(G2019S) (Homo sapiens, UniProt Q5S007, G2019S); settings: read-out: Percent control / Zanubrutinib
MTOR = MTOR (Homo sapiens, UniProt P42345); settings: read-out: Percent control / Zanubrutinib

Sequence of PIK3CA(C420R) (P42336 whole entry C420R): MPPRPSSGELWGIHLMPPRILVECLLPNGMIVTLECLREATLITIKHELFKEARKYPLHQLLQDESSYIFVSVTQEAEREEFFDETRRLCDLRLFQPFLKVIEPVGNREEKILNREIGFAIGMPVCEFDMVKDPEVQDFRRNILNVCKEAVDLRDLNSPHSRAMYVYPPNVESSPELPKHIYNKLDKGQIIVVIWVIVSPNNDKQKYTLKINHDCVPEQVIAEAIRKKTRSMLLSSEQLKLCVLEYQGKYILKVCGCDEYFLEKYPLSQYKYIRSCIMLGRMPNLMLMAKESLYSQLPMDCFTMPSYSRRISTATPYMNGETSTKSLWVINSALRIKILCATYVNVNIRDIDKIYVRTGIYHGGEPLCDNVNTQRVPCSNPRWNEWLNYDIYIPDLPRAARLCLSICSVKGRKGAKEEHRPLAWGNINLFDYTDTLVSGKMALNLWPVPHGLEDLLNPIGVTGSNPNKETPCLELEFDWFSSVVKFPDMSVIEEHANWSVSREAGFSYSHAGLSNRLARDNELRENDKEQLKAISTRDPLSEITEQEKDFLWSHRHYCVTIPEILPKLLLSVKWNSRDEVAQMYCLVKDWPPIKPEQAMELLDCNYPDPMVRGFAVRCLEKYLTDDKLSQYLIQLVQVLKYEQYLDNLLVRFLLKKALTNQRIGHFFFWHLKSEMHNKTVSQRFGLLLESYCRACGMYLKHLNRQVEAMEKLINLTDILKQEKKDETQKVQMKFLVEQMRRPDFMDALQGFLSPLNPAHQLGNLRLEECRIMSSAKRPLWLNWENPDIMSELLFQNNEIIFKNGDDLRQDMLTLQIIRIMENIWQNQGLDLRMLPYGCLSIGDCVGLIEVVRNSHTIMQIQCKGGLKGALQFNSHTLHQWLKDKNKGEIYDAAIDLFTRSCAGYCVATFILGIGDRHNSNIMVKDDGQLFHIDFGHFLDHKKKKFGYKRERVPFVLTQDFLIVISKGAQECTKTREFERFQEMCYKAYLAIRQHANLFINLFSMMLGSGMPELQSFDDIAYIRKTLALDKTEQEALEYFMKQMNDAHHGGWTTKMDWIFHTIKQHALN
Sequence of EGFR(G719S) (P00533 whole entry G719S): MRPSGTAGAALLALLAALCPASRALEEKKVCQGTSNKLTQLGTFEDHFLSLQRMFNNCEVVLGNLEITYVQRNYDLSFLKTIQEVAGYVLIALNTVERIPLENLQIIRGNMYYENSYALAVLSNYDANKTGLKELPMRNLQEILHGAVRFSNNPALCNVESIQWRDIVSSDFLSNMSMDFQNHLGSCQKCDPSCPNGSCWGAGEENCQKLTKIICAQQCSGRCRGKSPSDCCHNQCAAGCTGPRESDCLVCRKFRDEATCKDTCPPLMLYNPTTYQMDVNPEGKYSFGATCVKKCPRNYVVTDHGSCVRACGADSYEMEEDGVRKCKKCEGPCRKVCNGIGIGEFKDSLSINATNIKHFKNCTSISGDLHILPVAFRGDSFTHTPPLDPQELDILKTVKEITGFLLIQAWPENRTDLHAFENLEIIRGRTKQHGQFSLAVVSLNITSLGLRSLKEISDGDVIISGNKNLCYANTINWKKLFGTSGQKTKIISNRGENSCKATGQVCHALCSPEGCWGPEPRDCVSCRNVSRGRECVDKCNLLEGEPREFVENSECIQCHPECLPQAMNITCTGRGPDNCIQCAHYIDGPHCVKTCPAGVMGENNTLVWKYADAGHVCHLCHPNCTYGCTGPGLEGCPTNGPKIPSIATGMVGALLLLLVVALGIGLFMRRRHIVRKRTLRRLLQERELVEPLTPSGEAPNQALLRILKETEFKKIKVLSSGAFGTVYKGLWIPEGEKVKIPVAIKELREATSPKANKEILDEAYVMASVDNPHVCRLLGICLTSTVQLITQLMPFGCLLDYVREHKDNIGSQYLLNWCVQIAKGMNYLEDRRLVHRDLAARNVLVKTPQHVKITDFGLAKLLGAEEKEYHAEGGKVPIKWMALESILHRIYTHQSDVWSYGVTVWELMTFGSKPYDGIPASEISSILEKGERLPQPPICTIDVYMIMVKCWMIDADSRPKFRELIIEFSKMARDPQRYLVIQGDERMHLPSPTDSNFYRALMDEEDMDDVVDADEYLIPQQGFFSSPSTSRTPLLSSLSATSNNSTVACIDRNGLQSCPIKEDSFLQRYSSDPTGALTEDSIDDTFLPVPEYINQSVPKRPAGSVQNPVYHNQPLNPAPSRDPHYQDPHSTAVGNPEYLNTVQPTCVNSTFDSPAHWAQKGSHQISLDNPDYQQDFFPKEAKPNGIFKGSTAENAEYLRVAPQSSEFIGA
Sequence of CSNK1A1 (P48729 whole entry): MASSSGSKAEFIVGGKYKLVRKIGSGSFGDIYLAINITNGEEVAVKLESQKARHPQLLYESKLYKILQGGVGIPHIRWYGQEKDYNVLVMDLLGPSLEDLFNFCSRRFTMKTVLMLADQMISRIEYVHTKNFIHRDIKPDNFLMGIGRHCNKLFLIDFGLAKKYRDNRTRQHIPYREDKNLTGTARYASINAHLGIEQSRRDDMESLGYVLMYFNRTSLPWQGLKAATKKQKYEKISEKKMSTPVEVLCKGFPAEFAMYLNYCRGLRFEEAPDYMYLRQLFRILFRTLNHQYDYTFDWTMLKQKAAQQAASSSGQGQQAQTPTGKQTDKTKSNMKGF
T5 sequence (Q9H093 whole entry): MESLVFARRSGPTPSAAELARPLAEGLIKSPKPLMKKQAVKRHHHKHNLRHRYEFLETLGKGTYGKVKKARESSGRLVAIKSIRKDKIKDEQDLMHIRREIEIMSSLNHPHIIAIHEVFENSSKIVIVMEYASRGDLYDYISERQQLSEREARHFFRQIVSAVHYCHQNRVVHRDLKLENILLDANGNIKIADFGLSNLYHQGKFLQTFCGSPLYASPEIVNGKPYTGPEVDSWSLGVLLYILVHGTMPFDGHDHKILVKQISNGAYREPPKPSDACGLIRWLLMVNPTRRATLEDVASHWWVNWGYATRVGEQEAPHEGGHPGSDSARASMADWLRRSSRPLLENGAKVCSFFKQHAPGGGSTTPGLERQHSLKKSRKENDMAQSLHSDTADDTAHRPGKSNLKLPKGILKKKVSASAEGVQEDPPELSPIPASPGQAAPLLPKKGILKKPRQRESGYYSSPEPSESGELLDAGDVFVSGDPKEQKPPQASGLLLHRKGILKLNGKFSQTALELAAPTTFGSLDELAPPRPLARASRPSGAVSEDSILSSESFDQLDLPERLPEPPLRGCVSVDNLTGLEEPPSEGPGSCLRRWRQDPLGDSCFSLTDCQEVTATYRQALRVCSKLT
Sequence of CAMK1 (Q14012 whole entry, looked up): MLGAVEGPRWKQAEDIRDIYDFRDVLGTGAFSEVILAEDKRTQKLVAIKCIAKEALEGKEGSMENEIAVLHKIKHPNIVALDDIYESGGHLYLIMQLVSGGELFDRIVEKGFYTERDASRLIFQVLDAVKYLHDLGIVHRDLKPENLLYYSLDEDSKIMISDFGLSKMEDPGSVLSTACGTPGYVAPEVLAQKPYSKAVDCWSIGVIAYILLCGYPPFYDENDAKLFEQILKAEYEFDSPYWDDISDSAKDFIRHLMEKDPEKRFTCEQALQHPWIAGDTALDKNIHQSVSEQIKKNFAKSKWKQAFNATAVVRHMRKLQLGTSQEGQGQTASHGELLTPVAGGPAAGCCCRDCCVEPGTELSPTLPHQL
T7 sequence (O15075 whole entry): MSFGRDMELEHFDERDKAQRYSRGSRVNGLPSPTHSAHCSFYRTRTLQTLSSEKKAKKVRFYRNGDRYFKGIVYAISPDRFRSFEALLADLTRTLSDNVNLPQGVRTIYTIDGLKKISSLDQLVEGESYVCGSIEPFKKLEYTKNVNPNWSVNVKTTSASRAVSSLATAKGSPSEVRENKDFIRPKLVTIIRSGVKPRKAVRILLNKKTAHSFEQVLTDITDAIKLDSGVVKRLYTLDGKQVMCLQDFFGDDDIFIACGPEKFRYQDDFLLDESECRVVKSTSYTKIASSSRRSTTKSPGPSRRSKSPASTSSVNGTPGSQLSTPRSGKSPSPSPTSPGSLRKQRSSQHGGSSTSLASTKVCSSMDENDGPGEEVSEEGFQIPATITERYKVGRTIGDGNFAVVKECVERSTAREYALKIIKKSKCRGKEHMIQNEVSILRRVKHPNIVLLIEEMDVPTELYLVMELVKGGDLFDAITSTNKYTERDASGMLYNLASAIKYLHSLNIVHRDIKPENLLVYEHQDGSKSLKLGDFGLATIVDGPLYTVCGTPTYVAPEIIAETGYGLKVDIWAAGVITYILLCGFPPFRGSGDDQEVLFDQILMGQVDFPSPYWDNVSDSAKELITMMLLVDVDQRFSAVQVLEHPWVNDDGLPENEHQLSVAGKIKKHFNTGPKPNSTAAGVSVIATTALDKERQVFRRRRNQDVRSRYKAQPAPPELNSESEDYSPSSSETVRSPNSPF
T3 sequence (P07947 whole entry): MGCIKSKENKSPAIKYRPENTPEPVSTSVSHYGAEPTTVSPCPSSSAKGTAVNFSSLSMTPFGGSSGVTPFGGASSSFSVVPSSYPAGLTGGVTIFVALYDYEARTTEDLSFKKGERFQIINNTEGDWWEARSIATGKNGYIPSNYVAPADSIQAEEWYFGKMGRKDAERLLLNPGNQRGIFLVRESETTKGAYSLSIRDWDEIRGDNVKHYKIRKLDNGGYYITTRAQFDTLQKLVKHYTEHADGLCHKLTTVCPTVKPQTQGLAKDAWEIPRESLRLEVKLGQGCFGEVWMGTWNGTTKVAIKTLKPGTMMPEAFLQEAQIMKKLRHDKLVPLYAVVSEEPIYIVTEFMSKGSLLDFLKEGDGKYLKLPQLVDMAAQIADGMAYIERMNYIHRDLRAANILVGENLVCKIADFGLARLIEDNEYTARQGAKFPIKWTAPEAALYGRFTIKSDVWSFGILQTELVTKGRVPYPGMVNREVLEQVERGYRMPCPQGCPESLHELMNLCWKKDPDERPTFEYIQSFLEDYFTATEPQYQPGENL
Sequence of PIK3CA(E545A) (P42336 whole entry E545A): as the sequence (P42336 whole entry C420R) above, with R420C, E545A counted along it

## CC#CC(=O)N1CCC[C@H]1c1nc(-c2ccc(C(=O)Nc3ccccn3)cc2)c2c(N)nccn12 [Acalabrutinib]
PYK2
  remaining binding at 0.3 µM: 89%
CSNK1A1
  remaining binding at 0.3 µM: 76%
EPHA1
  remaining binding at 0.3 µM: 85%
[1]
  remaining binding at 0.3 µM: 96%
CAMK1
  remaining binding at 0.3 µM: 58%

## C=CC(=O)N1CCC[C@@H](n2nc(-c3ccc(Oc4ccccc4)cc3)c3c(N)ncnc32)C1 [Ibrutinib]
ALK
  remaining binding at 0.3 µM: 87%

## CC#CC(=O)N1CC[C@@H](n2c(=O)n(-c3ccc(Oc4ccccc4)cc3)c3c(N)ncnc32)C1 [Tirabrutinib]
EGFR(G719S)
  remaining binding at 0.3 µM: 85%
YES
  remaining binding at 0.3 µM: 71%
PRKR
  remaining binding at 0.3 µM: 93%

## C=CC(=O)N1CCC([C@@H]2CCNc3c(C(N)=O)c(-c4ccc(Oc5ccccc5)cc4)nn32)CC1 [Zanubrutinib]
ACVR1
  remaining binding at 0.3 µM: 100%
PIM3
  remaining binding at 0.3 µM: 84%
SNARK
  remaining binding at 0.3 µM: 97%
PLK2
  remaining binding at 0.3 µM: 100%
AKT1
  remaining binding at 0.3 µM: 100%
NEK6
  remaining binding at 0.3 µM: 88%
CDK5
  remaining binding at 0.3 µM: 98%
PIK3CA(E545A)
  remaining binding at 0.3 µM: 59%
HIPK2
  remaining binding at 0.3 µM: 87%
PIK3CA(C420R)
  remaining binding at 0.3 µM: 67%
[2]
  remaining binding at 0.3 µM: 83%
DCAMKL1
  remaining binding at 0.3 µM: 100%
LRRK2(G2019S)
  remaining binding at 0.3 µM: 47%
MTOR
  remaining binding at 0.3 µM: 88%
